According to ChEMBL document CHEMBL1132365, “A multisubstrate adduct inhibitor of AICAR transformylase” (J Med Chem, 1999):
pIC50, pKd: −log10 of the molar value.

How the values were obtained:
[1] = target: AICAR transformylase (Lactobacillus casei); test: Inhibitory activity against AICAR formyltransferase
[2] = target: T1, Bifunctional purine biosynthesis protein ATIC (Homo sapiens, UniProt P31939); test: Binding affinity towards AICAR formyltransferase
[3] = target: T1, Bifunctional purine biosynthesis protein ATIC; test: Inhibitory activity against AICAR formyltransferase

T1 sequence (P31939 whole entry): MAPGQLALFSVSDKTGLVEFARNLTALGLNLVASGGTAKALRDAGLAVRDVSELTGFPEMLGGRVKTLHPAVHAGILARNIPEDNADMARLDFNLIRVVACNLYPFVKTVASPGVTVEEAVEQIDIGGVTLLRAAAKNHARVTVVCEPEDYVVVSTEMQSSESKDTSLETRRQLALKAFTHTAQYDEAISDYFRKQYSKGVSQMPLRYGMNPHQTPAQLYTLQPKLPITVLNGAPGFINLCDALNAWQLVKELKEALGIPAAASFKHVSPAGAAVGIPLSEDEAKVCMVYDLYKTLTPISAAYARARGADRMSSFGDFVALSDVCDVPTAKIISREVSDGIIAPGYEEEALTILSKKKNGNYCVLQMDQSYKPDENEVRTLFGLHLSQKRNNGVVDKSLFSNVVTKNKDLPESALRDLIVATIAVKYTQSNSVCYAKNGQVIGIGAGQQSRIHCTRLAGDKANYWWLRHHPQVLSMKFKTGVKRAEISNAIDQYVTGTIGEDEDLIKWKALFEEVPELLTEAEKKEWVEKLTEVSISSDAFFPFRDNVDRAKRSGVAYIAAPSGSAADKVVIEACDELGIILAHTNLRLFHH

SMILES	pIC50 [1]	pKd [2]	pIC50 [3]
Nc1nc(=O)c2nc(CN(C=O)c3ccc(C(=O)N[C@H](CCC(=O)O)C(=O)O)cc3)ccc2[nH]1	5.19	–	–
NC(=O)c1ncn(C2O[C@H](COP(=O)(O)O)[C@@H](O)[C@H]2O)c1/C=C/C(=O)N(CC1=NC2C(=O)NC(N)=NC2C=C1)c1ccc(C(=O)N[C@@H](CCC(=O)O)C(=O)O)cc1 (stereo partly drawn)	–	7.70	6.90
